# Test results as given in patent US10300071B2, “Compositions and methods for inhibition of mycobacteria” (priority 2014, dated 2019).
# Read-outs that look alike come from different tables or passages of the source.
# Columns and labels:
# [1] = test system: human fibroblast
# [2] = biological target: Mtb AccD6 (Mycobacterium tuberculosis, UniProt P9WQH5); assay: biochemical; type: biochemical; settings: for IC50: 300 μM malonyl-CoA, inhibitor 10 μM to 2000 μM; for inhibition at 20 µM: read-out: inhibition at 20 uM
# Sequence of Mtb AccD6 (P9WQH5 whole entry, looked up): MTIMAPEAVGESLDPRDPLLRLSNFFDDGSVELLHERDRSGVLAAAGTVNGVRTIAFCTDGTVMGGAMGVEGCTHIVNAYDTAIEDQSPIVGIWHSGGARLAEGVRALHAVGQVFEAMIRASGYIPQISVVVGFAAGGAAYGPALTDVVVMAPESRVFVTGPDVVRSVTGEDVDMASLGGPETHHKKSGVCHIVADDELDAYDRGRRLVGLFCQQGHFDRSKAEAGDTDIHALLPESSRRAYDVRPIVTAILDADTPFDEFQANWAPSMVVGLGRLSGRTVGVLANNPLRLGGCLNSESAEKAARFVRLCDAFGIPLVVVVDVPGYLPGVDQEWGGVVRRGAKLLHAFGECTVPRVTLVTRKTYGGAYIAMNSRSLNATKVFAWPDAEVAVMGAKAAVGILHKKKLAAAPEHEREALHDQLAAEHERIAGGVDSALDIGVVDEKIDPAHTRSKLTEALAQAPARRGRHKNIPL
# [3] = test system: Mtb strain mc^2-7000; assay: microbe, parasite or virus in culture; type: cell-based, Mycobacterium tuberculosis; settings: 6 days incubation at 37° C., resazurin, read on the 7th day
# [4] = test system: S. cerevisiae
# [5] = Mycobacterium tuberculosis, 144 h, read-out: MIC
SMILES,"concentrations at which not toxic, human fibroblast cytotoxicity [1] [µM]",IC50 ([2]; read-out: IC50) [nM],"MIC [3, 5] [µM]","concentrations at which not toxic, s. cerevisiae cytotoxicity [4] [µM]",IC50 [2],inhibition at 15 µM ([2]; 15 uM) [%],MIC [3],inhibition at 20 µM [2] [%]
"CC(C(=O)O)c1ccc(Oc2nc3ccc(Cl)cc3s2)cc1 (centres unmarked) [NZ-312, 2-{4-[(6-chloro-1,3-benzothiazol-2-yl)oxy]phenyl}propanoic acid]",≥ 100,260,6,≥ 100,,,,
"CC(C(=O)O)c1ccc(Oc2nc3ccc(F)cc3s2)cc1 (centres unmarked) [NZ-329, 2-{4-[(6-fluoro-1,3-benzothiazol-2-yl)oxy]phenyl}propanoic acid]",≥ 100,370,12,≥ 100,,,,
"CC(C)NC(=O)N(C)c1ccc(Oc2nc3ccc(Cl)cc3s2)cc1 [NZ-388, 1-{4-[(6-chloro-1,3-benzothiazol-2-yl)oxy]phenyl}-1-methyl-3-(propan-2-yl)urea]",≥ 100,3000,2.1,≥ 100,,,,
"CONC(=O)C(C)(C)Oc1ccc(Oc2cnc3cc(Cl)ccc3n2)cc1 [NZ-316, 2-{4-[(6-chloroquinoxalin-2-yl)oxy]phenoxy}-N-methoxy-2-methylpropanamide]",≥ 100,,6,≥ 100,,,,
"CNC(=O)Cc1ccc(Oc2nc3ccc(Cl)cc3s2)cc1 [NZ-383, 2-{4-[(6-chloro-1,3-benzothiazol-2-yl)oxy]phenyl}-N-methylacetamide]",≥ 100,800 to 1170,3.9,≥ 100,,,,
"CCOC(=O)c1ccc2nc(Oc3ccc(NC(=O)NC(C)C)cc3)sc2c1 [NZ-378, ethyl 2-(4-{[(propan-2-yl)carbamoyl]amino}phenoxy)-1,3-benzothiazole-6-carboxylate]",≥ 100,,2.2,≥ 100,Not Active,,,
"CC(C)ONC(=O)COc1ccc(Oc2cnc3cc(Cl)ccc3n2)cc1 [NZ-326, 2-{4-[(6-chloroquinoxalin-2-yl)oxy]phenoxy}-N-(propan-2-yloxy)acetamide]",≥ 100,2500 to 4400,3,≥ 100,,,,
"CNC(=O)Cc1ccc(Oc2nc3ccc(F)cc3s2)cc1 [NZ-385, 2-{4-[(6-fluoro-1,3-benzothiazol-2-yl)oxy]phenyl}-N-methylacetamide]",≥ 100,870,3,≥ 100,,,,
"CCOC(=O)[C@@H](C)Oc1ccc(Oc2nc3ccc(F)cc3s2)cc1 [NZ-251, ethyl (2R)-2-{4-[(6-fluoro-1,3-benzothiazol-2-yl)oxy]phenoxy}propanoate]",≥ 100,,0.23,≥ 100,,,,
"CONC(=O)COc1ccc(Oc2nc3ccc(F)cc3s2)cc1 [NZ-305, 2-{4-[(6-fluoro-1,3-benzothiazol-2-yl)oxy]phenoxy}-N-methoxyacetamide]",≥ 100,,3,≥ 100,,50,,
"O=C(O)C(O)c1ccc(Oc2nc3ccc(Cl)cc3s2)cc1 (centres unmarked) [NZ-337, 2-{4-[(6-chloro-1,3-benzothiazol-2-yl)oxy]phenyl}-2-hydroxyacetic acid]",≥ 100,2300,25,≥ 100,,,,
"COC(=O)C(C)(C)Oc1ccc(Oc2nc3ccc(Cl)cc3s2)cc1 [NZ-317, methyl 2-{4-[(6-chloro-1,3-benzothiazol-2-yl)oxy]phenoxy}-2-methylpropanoate]",≥ 100,,6,≥ 100,,,,
"CC(C)NC(=O)Nc1ccc(Oc2nc3cc(Cl)ccc3s2)cc1 [NZ-376, 1-{4-[(5-chloro-1,3-benzothiazol-2-yl)oxy]phenyl}-3-(propan-2-yl)urea]",≥ 100,874,,≥ 100,,,Not Active,
"CNC(=O)Cc1ccc(Oc2nc3cc(F)c(F)cc3s2)cc1 [NZ-400, 2-{4-[(5,6-difluoro-1,3-benzothiazol-2-yl)oxy]phenyl}-N-methylacetamide]",≥ 100,210,0.61,≥ 100,,,,
"CC(C)NC(=O)Nc1ccc(Oc2ccc3cc(Cl)ccc3n2)cc1 [NZ-346, 1-{4-[(6-chloroquinolin-2-yl)oxy]phenyl}-3-(propan-2-yl)urea]",≥ 100,400,50,,,,,
"CC(C)NC(=O)Nc1ccc(Oc2nc3ccc(S(C)(=O)=O)cc3s2)cc1 [NZ-380, 1-{4-[(6-methanesulfonyl-1,3-benzothiazol-2-yl)oxy]phenyl}-3-(propan-2-yl)urea]",≥ 100,,3.4,≥ 100,Not Active,,,
"CNC(=O)Cc1ccc(Oc2nc3ccc(Cl)cc3s2)cc1OC [NZ-392, 2-{4-[(6-chloro-1,3-benzothiazol-2-yl)oxy]-2-methoxyphenyl}-N-methylacetamide]",≥ 100,7180,7.28,≥ 100,,,,
"CC(C)NC(=O)Nc1ccc(Oc2cnc3cc(F)ccc3n2)cc1 [NZ-345, 1-{4-[(6-fluoroquinoxalin-2-yl)oxy]phenyl}-3-(propan-2-yl)urea]",≥ 100,500,25,,,,,
"CC(C(=O)N(C)C)c1ccc(Oc2nc3ccc(Cl)cc3s2)cc1 (centres unmarked) [NZ-368, 2-{4-[(6-chloro-1,3-benzothiazol-2-yl)oxy]phenyl}-N,N-dimethylpropanamide]",≥ 100,3600,2.07,25 to 50,,,,
"CC(C)NC(=O)Nc1ccc(Oc2nc3ccc(O)cc3s2)cc1 [NZ-362, 1-{4-[(6-hydroxy-1,3-benzothiazol-2-yl)oxy]phenyl}-3-(propan-2-yl)urea]",≥ 100,,6.5,≥ 100,,,,20
"COC(=O)Cc1ccc(Oc2nc3cc(F)c(F)cc3s2)cc1 [NZ-398, methyl 2-{4-[(5,6-difluoro-1,3-benzothiazol-2-yl)oxy]phenyl}acetate]",≥ 100,3600,0.89,≥ 100,,,,
"CONC(=O)Cc1ccc(Oc2nc3ccc(F)cc3s2)cc1 [NZ-300, 2-{4-[(6-fluoro-1,3-benzothiazol-2-yl)oxy]phenyl}-N-methoxyacetamide]",≥ 100,820,7.5,≥ 100,,,,
"CONC(=O)C(O)c1ccc(Oc2nc3ccc(Cl)cc3s2)cc1 (centres unmarked) [NZ-338, 2-{4-[(6-chloro-1,3-benzothiazol-2-yl)oxy]phenyl}-2-hydroxy-N-methoxyacetamide]",≥ 100,7200,25,,,,,
"COC(=O)COc1ccc(Oc2nc3ccc(F)cc3s2)cc1 [NZ-303, methyl 2-{4-[(6-fluoro-1,3-benzothiazol-2-yl)oxy]phenoxy}acetate]",≥ 100,,4.5,,,,,50
"CN(C)C(=O)Nc1ccc(Oc2cnc3cc(Cl)ccc3n2)cc1 [NZ-343, 1-{4-[(6-chloroquinoxalin-2-yl)oxy]phenyl}-3,3-dimethylurea]",≥ 100,400,25,,,,,
"CC(C)NC(=O)Nc1ccc(Oc2nc3cc(Cl)c(Cl)cc3s2)cc1 [NZ-393, 1-{4-[(5,6-dichloro-1,3-benzothiazol-2-yl)oxy]phenyl}-3-(propan-2-yl)urea]",≥ 100,5070,,≥ 100,,,,
"CONC(=O)C(C)c1ccc(Oc2nc3ccc(OC)cc3s2)cc1 (centres unmarked) [NZ-335, N-methoxy-2-{4-[(6-methoxy-1,3-benzothiazol-2-yl)oxy]phenyl}propanamide]",≥ 100,,12,≥ 100,,,,
"COC(=O)C(O)c1ccc(Oc2nc3ccc(Cl)cc3s2)cc1 (centres unmarked) [NZ-336, methyl 2-{4-[(6-chloro-1,3-benzothiazol-2-yl)oxy]phenyl}-2-hydroxyacetate]",50 to 100,,12,50 to 100,,,,
"CN(C)C(=O)Nc1ccc(Oc2nc3ccc(Cl)cc3s2)cc1 [NZ-354, 1-{4-[(6-chloro-1,3-benzothiazol-2-yl)oxy]phenyl}-3,3-dimethylurea]",,7300,1,50 to 100,,,,
